Data from paper PMC12751057, “The energy landscape of N-ribosidic bond cleavage catalysed by 2′-deoxynucleoside 5′-phosphate N-hydrolase 1” (Biochemical Journal, 2025).
Changes are numbered by the printed parent chain.

Key:
[1] = target: T1, 2′-deoxynucleoside 5′-phosphate N-hydrolase 1 (HsDNPH1) (Homo sapiens, UniProt O43598); experiment: steady-state UV inhibition assay, competitive fit; assay type: biochemical
T1 construct: gene DNPH1
T1 sequence (O43598 2-174): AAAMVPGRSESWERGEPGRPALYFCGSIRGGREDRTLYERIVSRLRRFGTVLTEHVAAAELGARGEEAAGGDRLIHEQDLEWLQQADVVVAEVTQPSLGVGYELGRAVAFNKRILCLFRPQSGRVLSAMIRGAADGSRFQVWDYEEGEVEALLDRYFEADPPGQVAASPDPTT

[2] = target: T2, 2′-deoxynucleoside 5′-phosphate N-hydrolase 1 (HsDNPH1) (Homo sapiens, UniProt O43598, E104Q); experiment: ITC; also stopped-flow UV binding kinetics (KD app […]) and differential UV spectroscopy
T2 construct: gene DNPH1
T2 sequence (O43598 2-174 E104Q): T1 sequence (O43598 2-174) with E103Q

[3] = target: T3, 2′-deoxynucleoside 5′-phosphate N-hydrolase 1 (HsDNPH1) (Homo sapiens, UniProt O43598, E55Q); experiment: stopped-flow burst and single-turnover kinetics of the purified variant (turnover, k burst); assay type: biochemical
T3 construct: gene DNPH1
T3 sequence (O43598 2-174 E55Q): T1 sequence (O43598 2-174) with E54Q

[4] = target: T1, 2′-deoxynucleoside 5′-phosphate N-hydrolase 1 (HsDNPH1); experiment: single-turnover stopped-flow UV kinetics, k2/k1 ratio from global fit; steady-state hydrolysis; assay type: biochemical

| Ki [1] | Kd [2] | rate constant [3] | Kd [4] | SMILES |
| --- | --- | --- | --- | --- |
| 6900 ± 800 µM |  |  |  | O=P(O)(O)OC[C@H]1OC(O)[C@H](O)[C@@H]1O (stereo partly shown) [ribose 5-phosphate] |
|  | 1.6 ± 0.4 µM | 0.270 ± 0.001 s⁻¹ | 2.36 µM | O=c1[nH]c(=O)n([C@H]2C[C@H](O)[C@@H](COP(=O)(O)O)O2)cc1CO [5hmdUMP, 5-hydroxymethyl-2′-deoxyuridine 5′-monophosphate] |
